Patent publication US20230027066A1 (Urovant Sciences GmbH, priority 2019, published 2023)

Columns and labels:
CYP2D6 = CYP2D6 (Homo sapiens, UniProt P10635); test: clinical; settings: in vivo, 4 mg
[1] = Phase 3 study (75 mg), post-void residual urine volume (PVR); assay type: in vivo, human
Excerpt: The risk of acute urinary retention or morbidities related to an increase in Post-Void Residual (PVR) is a concern with antimuscarinic therapy that promotes smooth muscle relaxation by inhibiting acetylcholine-induced smooth muscle contraction. If, during contraction, the bladder cannot generate enough pressure to overcome the outlet resistance in the urethra, either because of poor detrusor contractility or profound obstruction (most commonly from BPH), acute urinary retention or incomplete emptying of the bladder may result.
The volume of urine that remains in the bladder after voiding (PVR) is an objective measurement that may serve as a proxy for impaired ability to void.
PVR were performed via ultrasound at the visits indicated in the Schedule of Activities.

[2] = Phase 2b study, vital sign (HR, SBP, DBP) changes and orthostatic AEs; assay type: in vivo, human; settings: tolterodine 4 mg
Excerpt: None led to discontinuation. The overall incidence of orthostatic symptoms was low.
Small differences in the percent of subjects exceeding categorical heart rate and blood pressure thresholds for vibegron were similar to those in the tolterodine arm.

men and women with OAB = test: Phase 2b study of vibegron in OAB, Part 1, efficacy at Week 8 (voiding diary); assay type: in vivo, human; settings: tolterodine ER 4 mg
Excerpt: Part 2 was designed to continue to assess the safety and efficacy of concomitant dosing. […] Subjects in both Part 1 and Part 2 had the option of enrolling in a 1-year extension. Participants were required to keep a voiding diary, recording the occurrence of each strong urge, total incontinence, and urge incontinence episode. Efficacy data for Part 1 and Part 2 are summarized herein.
The total number of urgency incontinence episodes must have exceeded the total number of stress incontinence episodes for all subjects.

[3] = Males with medical history of BPH

Chain of CYP2D6 (P10635 whole entry): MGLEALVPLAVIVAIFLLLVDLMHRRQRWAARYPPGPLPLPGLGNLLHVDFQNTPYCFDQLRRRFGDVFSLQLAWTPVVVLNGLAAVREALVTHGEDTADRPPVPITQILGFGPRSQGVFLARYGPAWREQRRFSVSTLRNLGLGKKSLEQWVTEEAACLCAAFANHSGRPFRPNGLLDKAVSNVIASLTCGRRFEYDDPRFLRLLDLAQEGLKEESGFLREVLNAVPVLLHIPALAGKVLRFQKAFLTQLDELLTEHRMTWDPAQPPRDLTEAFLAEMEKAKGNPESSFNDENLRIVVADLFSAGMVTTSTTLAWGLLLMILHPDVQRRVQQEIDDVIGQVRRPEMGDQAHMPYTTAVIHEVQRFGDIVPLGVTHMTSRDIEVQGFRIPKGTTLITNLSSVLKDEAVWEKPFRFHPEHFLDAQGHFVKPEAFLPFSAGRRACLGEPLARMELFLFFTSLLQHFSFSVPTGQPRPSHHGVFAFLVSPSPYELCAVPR

Cc1ccc(O)c([C@H](CCN(C(C)C)C(C)C)c2ccccc2)c1 [Tolterodine ER, tolterodine, reference compound]
AUC(0-t) (CYP2D6): 28.4 ng·h/mL | half-life (CYP2D6): 10 h | PVR category at Week 12 <100 mL, patients ([1]; Females): 94.4% | PVR category at Week 12 ≥100 mL to <200 mL, patients ([1]; Females): 5.3% | PVR category at Week 12 ≥200 mL to <350 mL, patients ([1]; Females): 0.3% | PVR category at Week 12 ≥350 mL, patients ([1]; Females): 0 | PVR, Mean Change from Baseline at Week 12 (SD) ([1]; Females): 1.9 (40.24) mL | PVR category at Week 12 <100 mL, patients ([1]; Males): 85.2% | PVR category at Week 12 ≥100 mL to <200 mL, patients ([1]; Males): 11.5% | PVR category at Week 12 ≥200 mL to <350 mL, patients ([1]; Males): 3.3% | PVR category at Week 12 ≥350 mL, patients ([1]; Males): 0 | PVR, Mean Change from Baseline at Week 12 (SD) ([1]; Males): 10.2 (44.24) mL | PVR category at Week 12 <100 mL, patients [1, 3]: 71.4% | PVR category at Week 12 ≥100 mL to <200 mL, patients [1, 3]: 28.6% | PVR category at Week 12 ≥200 mL to <350 mL, patients [1, 3]: 0% | PVR category at Week 12 ≥350 mL, patients [1, 3]: 0 | PVR, Mean Change from Baseline at Week 12 (SD) [1, 3]: 3.7 (50.64) mL | PVR category at Week 12 <100 mL, patients ([1]; all patients): 86.5% | PVR category at Week 12 ≥100 mL to <200 mL, patients ([1]; all patients): 5.8% | PVR category at Week 12 ≥200 mL to <350 mL, patients ([1]; all patients): 0.7% | PVR category at Week 12 ≥350 mL, patients ([1]; all patients): 0 | PVR, Mean Change from Baseline at Week 12 (SD) ([1]; all patients): 3.1 (40.93) mL | DBP change from baseline, mean (95% CI) maximum, week 1 to 8 [2]: 5.19 (4.26, 6.13) mm Hg | DBP change from baseline, mean (95% CI), week 1 [2]: −0.12 (−1.10, 0.86) mm Hg | HR change from baseline, mean (95% CI) maximum, week 1 to 8 [2]: 5.66 (4.69, 6.63) bpm | HR change from baseline, mean (95% CI), week 1 [2]: 0.68 (−0.31, 1.67) bpm | SBP change from baseline, mean (95% CI) maximum, week 1 to 8 [2]: 7.29 (6.01, 8.57) mm Hg | SBP change from baseline, mean (95% CI), week 1 [2]: 0.04 (−1.36, 1.43) mm Hg | Change from baseline in volume voided per micturition at Week 8, difference from placebo in LS means (men and women with OAB): 30.77 mL | Micturitions: adjusted difference from placebo at Week 8, difference in LS means (MMRM) (men and women with OAB): −0.6 | Micturitions: change from baseline at Week 8, mean (men and women with OAB): −1.73 | Micturitions: daily number of events, Week 8 mean (men and women with OAB): 9.24 | Micturitions: difference from placebo at Week 8, difference in LS means (cLDA) (men and women with OAB): −0.54 | Urgency episodes: adjusted difference from placebo at Week 8, difference in LS means (MMRM) (men and women with OAB): −1.0 | Urgency episodes: change from baseline at Week 8, mean (men and women with OAB): −2.52 | Urgency episodes: daily number of events, Week 8 mean (men and women with OAB): 3.91 | Urgency episodes: difference from placebo at Week 8, difference in LS means (cLDA) (men and women with OAB): −0.94 | Total incontinence episodes: adjusted difference from placebo at Week 8, difference in LS means (MMRM) (men and women with OAB; OAB Wet subjects): −0.3 | Total incontinence episodes: change from baseline at Week 8, mean (men and women with OAB; OAB Wet subjects): −1.80 | Total incontinence episodes: daily number of events, Week 8 mean (men and women with OAB; OAB Wet subjects): 1.32 | Total incontinence episodes: difference from placebo at Week 8, difference in LS means (cLDA) (men and women with OAB; OAB Wet subjects): −0.34 | Urgency incontinence episodes: adjusted difference from placebo at Week 8, difference in LS means (MMRM) (men and women with OAB; OAB Wet subjects): −0.4 | Urgency incontinence episodes: change from baseline at Week 8, mean (men and women with OAB; OAB Wet subjects): −1.67 | Urgency incontinence episodes: daily number of events, Week 8 mean (men and women with OAB; OAB Wet subjects): 1.15 | Urgency incontinence episodes: difference from placebo at Week 8, difference in LS means (cLDA) (men and women with OAB; OAB Wet subjects): −0.46
